# Reference: patent US6162830A, “Benzenesulfonamide inhibitors of PDE-IV and their therapeutic use” (Warner-Lambert Company, priority 2000, dated 2000)
# Tested on: PDE-IV
# Assay: PDE-IV Assay Procedure (SPA, 3H-cAMP, U937 lysate)
# Format: biochemical
# Settings: U937 cell lysate as PDE-IV source; 200 nM cAMP, 8 nM 3H-cAMP; pH 8.0; 2% DMSO; 1 hour at 37° C.; initially tested at 10, 3, 1, 0.3, 0.1 μM
# Description: Representative compounds to be tested were diluted in 96-well plates. The compounds were either received as a 10 mM stock solution in DMSO, or as a solid which was resuspended to a concentration of 10 mM in DMSO. The compounds were initially tested at 10, 3, 1, 0.3, and 0.1 μM to calculate an IC50. In some cases, plates containing diluted compounds were frozen before being assayed. In these cases, the plates were thawed for 15 minutes at 37° C. and agitated before proceeding.
# Two microliters of the diluted compounds on Rolipram were spotted into an assay plate. Ninety-eight microliters of reaction mixture containing PDE-IV enzyme were added to each well. The plate was then agitated for 2 minutes at a setting of 3.5 on a vortex and incubated for 1 hour at 37° C. The reaction was terminated with 50 μl of 0.5X SPA beads, and the reaction tray was allowed to incubate at room temperature for 20 minutes before radioactivity was measured using standard instrumentation.
# The reaction mixture contained 35.2 mM Tris pH 8.0, 9.4 mM MgCl2, 4 mM β-mercapotoethanol, 200 nM cAMP, 8 nM ^3 H-cAMP, 2% DMSO 1% U937 lysate (from ABS). The reaction mixture was prepared by adding […] H2 O to 10 mL 10X Assay Buffer, 40 μL 1 μCi/μL ^3 H-cAMP, 20 μL 1 mM cAMP (cAMP stock made fresh each time), and 1 mL U937 cell lysate. 10X assay buffer was prepared by mixing 400 mM Tris Base with 400 mM Tris HCl to pH 8.0, adding to 100 mL of this Tris buffer solution, 1.017 g MgCl2, 319 μL μ-mercaptoethanol. 0.5X SPA beads was prepared by adding 500 mg beads to 56 mL H2 O for a final concentration of 8.9 mg/mL beads and 9 mM zinc sulfate.
row,IC50,SMILES
1,0.46 µM,"CCCN(CCC)S(=O)(=O)c1ccc(OC)c(OC)c1 [Example 4, N,N-Dipropyl-3,4-dimethoxybenzenesulfonamide]"
2,0.45 µM,"C=CCN(CC=C)S(=O)(=O)c1ccc(OC)c(OC)c1 [Example 5, N,N-Di-(2-propenyl)-3,4-dimethoxybenzenesulfonamide]"
3,0.28 µM,"CCOc1ccc(S(=O)(=O)N(C)C)cc1OCC [Example 6, N,N-Dimethyl-3,4-diethoxybenzenesulfonamide]"
4,3.6 µM,"COc1ccc(S(=O)(=O)N2CCCCC2)cc1OC [Example 7, N-(3,4-dimethoxybenzenesulfonyl)piperidine]"
5,3.2 µM,"COc1ccc(S(=O)(=O)N2CCCC2)cc1OC [Example 8, N-(3,4-dimethoxybenzenesulfonyl)pyrrolidine]"
6,2.2 µM,"COc1ccc(S(=O)(=O)NC2CCCCC2)cc1OC [Example 9, N-(3,4-dimethoxybenzenesulfonyl)cyclohexylamine]"
7,0.17 µM,"C#CCN(C)S(=O)(=O)c1ccc(OCC)c(OCC)c1 [Example 10, N-(2-Propynyl)-N-methyl-3,4-diethoxybenzenesulfonamide]"
8,0.7 µM,"CCN(C)S(=O)(=O)c1ccc(OC)c(OC)c1 [Example 11, N-Ethyl-N-methyl-3,4-dimethoxybenzenesulfonamide]"
9,0.47 µM,"CCCN(C)S(=O)(=O)c1ccc(OC)c(OC)c1 [Example 12, N-Propyl-N-methyl-3,4-dimethoxybenzenesulfonamide]"
10,0.66 µM,"C=CCN(C)S(=O)(=O)c1ccc(OC)c(OC)c1 [Example 15, N-(2-Propenyl)-N-methyl-3,4-dimethoxybenzenesulfonamide]"
11,1.56 µM,"CC=CCN(C)S(=O)(=O)c1ccc(OC)c(OC)c1 [Example 16, N-(2-Butenyl)-N-methyl-3,4-dimethoxybenzenesulfonamide]"
12,0.02 µM,"C=CCN(C)S(=O)(=O)c1ccc(OCC)c(OCC)c1 [Example 17, N-(2-Propenyl)-N-methyl-3,4-diethoxybenzenesulfonamide]"
13,1.76 µM,"COc1ccc(S(=O)(=O)N(C)CC#N)cc1OC [Example 23, N-(methylenenitrile)-N-methyl-3,4-dimethoxybenzenesulfonamide]"
